# In ChEMBL document CHEMBL3856228, “Design and Synthesis of Pyridone-Containing 3,4-Dihydroisoquinoline-1(2H)-ones as a Novel Class of Enhancer of Zeste Homolog 2 (EZH2) Inhibitors” (J Med Chem, 2016):
# Calls of active or inactive are those of the source. The rule behind the calls is not given here.
# How the values were obtained:
# [1] = tested on: KARPAS-422; assay: Antitumor activity against human KARPAS422 cells xenografted in Scid beige mouse assessed as tumor growth inhibition at 200 to 300 mg/kg, bid for 20 days measured for 3 weeks post last dose; type: functional, organism-based
# [2] = tested on: KARPAS-422; assay: Antitumor activity against human KARPAS422 cells xenografted in Scid beige mouse assessed as tumor stasis at 200 to 300 mg/kg, bid for 20 days measured on day 20; type: functional, organism-based
# [3] = tested on: KARPAS-422; assay: Antitumor activity against human KARPAS422 cells xenografted in Scid beige mouse assessed as tumor regression at 200 to 300 mg/kg, bid for 20 days measured on day 20; type: functional, organism-based
# [4] = Time duration during which free plasma concentration stays at or below in vitro cell IC50 in mouse at 30 to 100 mg/kg; type: ADME, organism-based; conditions: in vivo
# [5] = target: T1, Histone-lysine N-methyltransferase EZH2 (Homo sapiens, UniProt O75530+Q09028+Q15022+Q15910); assay: Inhibition of wild-type EZH2 (unknown origin) expressed in baculovirus infected SF9 cells co-expressing SUZ12/EED/RbAp48 complex using HeLa cells derived oligonucleosomes as substrate after 60 mins in presence of [3H] SAM by scintillation counting
# T1 sequence (Q15910 whole entry, one chain of several): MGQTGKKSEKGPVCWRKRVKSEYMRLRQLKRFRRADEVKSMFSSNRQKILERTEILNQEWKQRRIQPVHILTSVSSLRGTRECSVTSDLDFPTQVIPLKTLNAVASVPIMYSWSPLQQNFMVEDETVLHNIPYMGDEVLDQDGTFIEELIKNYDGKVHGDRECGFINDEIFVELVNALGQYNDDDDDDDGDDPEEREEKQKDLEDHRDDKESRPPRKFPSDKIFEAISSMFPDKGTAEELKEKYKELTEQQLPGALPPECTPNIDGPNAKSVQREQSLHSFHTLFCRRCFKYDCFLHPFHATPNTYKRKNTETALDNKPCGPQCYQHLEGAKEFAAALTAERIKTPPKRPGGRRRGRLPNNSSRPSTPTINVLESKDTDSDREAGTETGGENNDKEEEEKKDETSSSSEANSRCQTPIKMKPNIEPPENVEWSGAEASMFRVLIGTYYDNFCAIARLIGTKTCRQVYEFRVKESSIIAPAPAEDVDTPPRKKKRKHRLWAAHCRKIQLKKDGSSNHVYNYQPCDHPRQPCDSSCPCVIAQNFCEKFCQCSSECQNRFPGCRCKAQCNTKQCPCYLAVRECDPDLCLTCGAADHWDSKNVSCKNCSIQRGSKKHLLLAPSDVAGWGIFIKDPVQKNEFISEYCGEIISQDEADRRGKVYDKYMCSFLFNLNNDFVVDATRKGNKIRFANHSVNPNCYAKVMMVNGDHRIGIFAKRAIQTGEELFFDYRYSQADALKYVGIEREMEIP
# [6] = Lipophilicity, log D of the compound at pH 7.4; conditions: buffer
# [7] = Intrinsic clearance in human liver microsomes at 1 uM after 45 mins in presence of NADPH by LC-MS/MS analysis; type: ADME; conditions: read-out: CLH
# [8] = target: Histone-lysine N-methyltransferase EZH2 (Homo sapiens, UniProt Q15910); assay: Inhibition of EZH2 in human KARPAS422 cells assessed as reduction in H3K27Me3 levels after 72 hrs by ELISA; type: cell-based
# Histone-lysine N-methyltransferase EZH2 (Homo sapiens, UniProt Q15910), sequence (Q15910 whole entry): as the sequence (Q15910 whole entry, one chain of several) above
# [9] = Cytotoxicity against human KARPAS422 cells assessed as inhibition of cell proliferation after 72 hrs; type: functional, cell-based; conditions: KARPAS-422, 72 h
# [10] = Intrinsic clearance in mouse liver microsomes at 1 uM after 45 mins in presence of NADPH by LC-MS/MS analysis; type: ADME; conditions: read-out: CLH
# [11] = Permeability in RRCK cells; type: ADME, cell-based, Canis lupus familiaris, MDCKII-LE; conditions: dog, MDCK; read-out: permeability
# [12] = tested on: MDR1; assay: Permeability across apical to basolateral side in MDCK cells expressing MDR1; type: ADME, cell-based, Canis lupus familiaris; conditions: dog, read-out: permeability
# [13] = Kinetic solubility of the compound; type: physicochemical; conditions: read-out: Kinetic_solubility
# [14] = Time duration during which free plasma concentration stays above in vitro cell IC90 in mouse at 300 mg/kg; type: ADME, organism-based; conditions: in vivo
# [15] = Protein binding in mouse plasma at 30 to 300 mg/kg; type: ADME, organism-based; conditions: read-out: PPB (converted)
# [16] = tested on: Mus musculus; assay: Toxicity in Scid beige mouse xenografted with human KARPAS422 cells assessed as body weight loss at 200 to 300 mg/kg, bid for 20 days measured during compound dosing; type: organism-based; conditions: in vivo, 480 h
# [17] = tested on: Mus musculus; assay: In vivo inhibition of EZH2 in human KARPAS422 cells xenografted in Scid beige mouse assessed as reduction in H3K27Me3 levels at 200 mg/kg, bid for 20 days measured 1 to 4 hrs post last dose on day 20 by ELISA; type: functional; conditions: KARPAS-422
# [18] = tested on: Mus musculus; assay: In vivo inhibition of EZH2 in Scid beige mouse xenografted with human KARPAS422 cells assessed as reduction in H3K27Me3 levels at 300 mg/kg, bid for 20 days measured 1 to 4 hrs post last dose on day 20 by ELISA; type: functional; conditions: KARPAS-422
# [19] = tested on: Mus musculus; assay: In vivo inhibition of EZH2 in Scid beige mouse xenografted with human KARPAS422 cells assessed as upregulation of PRDM1 expression at 200 mg/kg, bid for 20 days measured 1 to 4 hrs post last dose on day 20 relative to control; type: functional
# [20] = tested on: Mus musculus; assay: In vivo inhibition of EZH2 in Scid beige mouse xenografted with human KARPAS422 cells assessed as upregulation of PRDM1 expression at 300 mg/kg, bid for 20 days measured 1 to 4 hrs post last dose on day 20 relative to control; type: functional
# [21] = tested on: Mus musculus; assay: In vivo inhibition of EZH2 in Scid beige mouse xenografted with human KARPAS422 cells assessed as upregulation of TNFRSF21 expression at 200 mg/kg, bid for 20 days measured 1 to 4 hrs post last dose on day 20 relative to control; type: functional
# [22] = tested on: Mus musculus; assay: In vivo inhibition of EZH2 in Scid beige mouse xenografted with human KARPAS422 cells assessed as upregulation of TNFRSF21 expression at 300 mg/kg, bid for 20 days measured 1 to 4 hrs post last dose on day 20 relative to control; type: functional
# [23] = tested on: MDR1; assay: in vitro; conditions: dog, MDCK-MDR1
# Description: Efflux ratio of permeability from basolateral to apical side over apical to basolateral side in MDCK cells expressing MDR1
# [24] = target: Histone-lysine N-methyltransferase EZH2 (Homo sapiens, UniProt O75530+Q09028+Q15022+Q15910, Y641N); assay: Inhibition of EZH2 Y641N mutant (unknown origin) expressed in baculovirus infected SF9 cells co-expressing SUZ12/EED/RbAp48 complex using HeLa cells derived oligonucleosomes as substrate after 60 mins in presence of [3H] SAM by scintillation counting
# Histone-lysine N-methyltransferase EZH2 (Homo sapiens, UniProt O75530+Q09028+Q15022+Q15910, Y641N), sequence (Q15910 whole entry Y641N, one chain of several): as the sequence (Q15910 whole entry, one chain of several) above, with Y641N counted along it
# [25] = target: T1, Histone-lysine N-methyltransferase EZH2; assay: Binding affinity to EZH2 (unknown origin) expressed in baculovirus infected SF9 cells co-expressing SUZ12/EED/RbAp48 complex by ITC analysis
SMILES,logD [6],microsomal CLint at 1 µM [7],IC50 [5],IC50 [8],IC50 [9],further results
Cc1cc(C)c(CN2CCc3c(Cl)cc(-c4c(C)noc4C)c(Cl)c3C2=O)c(=O)[nH]1,3.1,107 µL/min/mg,,15 nM,25 nM,TGI [1]: Active; Activity [2]: Active; Activity [3]: Active; Time [4]: 6 h; Ki [5]: 0.7 nM; microsomal CLint at 1 µM [10]: 531 µL/min/mg; Papp [11]: 15.7 ×10⁻⁶ cm/s; Papp A→B [12]: 5.2 ×10⁻⁶ cm/s; solubility kinetic [13]: 93.5 µM; Time [14]: <= 6 hr; fraction unbound [15]: 0.85; Activity [16]: < 10%; inhibition in vivo at 200 mg/kg [17]: 55.5%; inhibition in vivo at 300 mg/kg [18]: 66.4%; fold change (FC) [19]: 31.6; fold change (FC) [20]: 57.9; fold change (FC) [21]: 99.2; fold change (FC) [22]: 208.9; efflux ratio [23]: 4.6
Cc1cc(C)c(CN2CCc3c(F)cc(O[C@@H]4CCOC4)c(Cl)c3C2=O)c(=O)[nH]1,2.1,,56 nM,994 nM,1030 nM,IC50 [24]: 260 nM
Cc1cc(C)c(CN2CCc3ccc(O[C@@H]4CCOC4)c(Cl)c3C2=O)c(=O)[nH]1,1.5,21 µL/min/mg,,796 nM,512 nM,microsomal CLint at 1 µM [10]: 31 µL/min/mg; Papp [11]: 12.3 ×10⁻⁶ cm/s; Papp A→B [12]: 1.7 ×10⁻⁶ cm/s; solubility kinetic [13]: 510 µM
COc1ccc2c(c1Cl)C(=O)N(Cc1c(C)cc(C)[nH]c1=O)CCC2,1.7,82 µL/min/mg,150 nM,,,
Cc1cc(C)c(CN2CCc3ccc(-c4c(C)noc4C)c(Cl)c3C2=O)c(=O)[nH]1,2.6,,3.2 nM,105 nM,121 nM,Ki [5]: 2 nM; IC50 [24]: 8.8 nM; Ki [24]: 6.3 nM
Cc1cc(C)c(CN2CCc3c(Cl)cc(-c4c(C)n[nH]c4C)c(Cl)c3C2=O)c(=O)[nH]1,3.4,,16 nM,502 nM,959 nM,IC50 [24]: 82 nM
Cc1cc(C)c(CN2CCc3c(Cl)cc(-c4cn[nH]c4)c(Cl)c3C2=O)c(=O)[nH]1,3,,51 nM,1730 nM,1580 nM,IC50 [24]: 270 to 271 nM
Cc1cc(C)c(CN2CCc3c(Cl)cc(-c4c(C)nn(C)c4C)c(Cl)c3C2=O)c(=O)[nH]1,3.4,,1500 nM,15300 nM,12800 nM,IC50 [24]: 6000 nM
COc1ccc2c(c1Cl)C(=O)N(Cc1c(C)cc(C)[nH]c1=O)CC2,1.8,35 µL/min/mg,,,,
Cc1cc(C)c(CN2CCc3ccc(OC(C)C)c(C)c3C2=O)c(=O)[nH]1,,102 µL/min/mg,160 nM,,,Kd [25]: 37.4 nM
COc1ccc2c(c1Cl)C(=O)N(Cc1c(C)cc(C)[nH]c1=O)CCO2,1.3,40 µL/min/mg,650 nM,,,
Cc1cc(C)c(CN2CCc3c(C)cc(O[C@@H]4CCOC4)c(Cl)c3C2=O)c(=O)[nH]1,2.1,,18 nM,290 nM,406 nM,IC50 [24]: 61 nM
Cc1cc(C)c(CN2CCc3ccc(OC(C)C)cc3C2=O)c(=O)[nH]1,2.5,19 µL/min/mg,,,,
Cc1cc(C)c(CN2CCc3ccc(OC(C)C)c(Cl)c3C2=O)c(=O)[nH]1,2.7,53 to 53.8 µL/min/mg,,1190 nM,1160 nM,Papp [11]: 19.6 ×10⁻⁶ cm/s; Papp A→B [12]: 7.9 ×10⁻⁶ cm/s; solubility kinetic [13]: 19.6 µM
Cc1cc(C)c(CN2CCc3c(Cl)cc(O[C@@H]4CCOC4)c(Cl)c3C2=O)c(=O)[nH]1,2.5,21 µL/min/mg,5.6 nM,170 nM,155 nM,IC50 [24]: 18 nM; microsomal CLint at 1 µM [10]: 163 µL/min/mg; Papp [11]: 14.7 ×10⁻⁶ cm/s; Papp A→B [12]: 4.5 ×10⁻⁶ cm/s; solubility kinetic [13]: 26 µM; efflux ratio [23]: 4.7
CCOc1ccc2c(c1Cl)C(=O)N(Cc1c(C)cc(C)[nH]c1=O)CC2,2.2,37 µL/min/mg,,,,
Cc1cc(C)c(CN2CCc3c(Cl)cc(-c4cn[nH]c4C)c(Cl)c3C2=O)c(=O)[nH]1,3.1,,24 nM,873 nM,1340 nM,IC50 [24]: 110 nM

# Second part, led by results:
logD [6],microsomal CLint at 1 µM [7],IC50 [5],SMILES,IC50 [8],IC50 [9],further results
1.4,,> 150000 nM,COc1cccc(C(=O)NCc2c(C)cc(C)[nH]c2=O)c1F,,,
1.7,,> 140000 nM,COc1cccc(C(=O)NCc2c(C)cc(C)[nH]c2=O)c1OC,,,
2.1,,1400 nM,Cc1cc(C)c(CNC(=O)c2cccc(OC(C)C)c2C)c(=O)[nH]1,,,Kd [25]: 252 nM
1.2,8 µL/min/mg,7200 nM,COc1cccc(C(=O)NCc2c(C)cc(C)[nH]c2=O)c1Cl,,,
2.1,,2000 nM,CCOc1cccc(C(=O)NCc2c(C)cc(C)[nH]c2=O)c1C,,,
2,,1300 nM,Cc1cc(C)c(CNC(=O)c2cccc(OC(C)C)c2Cl)c(=O)[nH]1,,,
1.7,,> 150000 nM,COc1cccc(C(=O)NCc2c(C)cc(C)[nH]c2=O)c1,,,
,,> 200000 nM,Cc1cc(C)c(CNC(=O)c2ccccc2C)c(=O)[nH]1,,,
1.5,,5700 nM,COc1cccc(C(=O)NCc2c(C)cc(C)[nH]c2=O)c1C,,,
1.9,,44000 nM,COc1cccc(C(=O)NCc2c(C)cc(C)[nH]c2=O)c1O,,,
